Experimental data reported in article PMC5730592, “Parallelogram based approach for in vivo dose estimation of genotoxic metabolites in humans with relevance to reduction of animal experiments” (Scientific Reports, 2017).
Where “and” joins values, the source holds several entries; their conditions need not be identical. Equal values may be shown once. Read-outs that look alike come from different tables or passages of the source.

Tests used:
[1] = male rat, different AA exposure studies, various methods; cited from earlier work
[2] = cited from earlier work
[3] = In vivo dose (AUC) in rat calculated from measured Hb adduct levels after AA exposure; settings: from Hb adduct levels
Procedure: The in vivo dose or AUC of a compound in blood is the concentration integrated over time (Eq. 2).2 AUC=∫tC(t)dt A method to infer the AUC of an electrophilic compound or metabolite from measured Hb adduct levels (A) has been developed and established by our research group for quantitative monitoring of exposure in humans or for application in animal studies[1],[3]. When Hb adduct formation is measured a short time after a single acute exposure, or after incubation in vitro, AUC can be calculated using Eq. 3. This equation is based on A, and the second-order reaction rate constant (kNu) for the formation of an adduct to a nucleophilic site in Hb from the concerned electrophile.3 AUC=A/kNu
For calculating the daily AUC from a longer duration of exposure, the daily adduct level increments (a) have to be calculated considering the accumulation and elimination of adducts due to lifetime of the erythrocytes (t er). […] From continuous or subchronic exposure when the exposure time (t) is shorter than t er, the accumulated adduct level is calculated [a × t × (1 − t/2t er)][49].
For in vivo data on AUC of AA and of GA from AA exposure in rats, a study on short-term oral exposure of rats was used[24]. […] Blood samples were collected and AA- and GA-adducts to N-terminal valine in Hb were measured as described above, and recalculated to the daily increment of the adduct level. […]

[4] = set-up: method as in Doerge at al. (2005); settings: male F344 rats, single dietary exposure ca. 100 µg AA/kg bw, n = 7, direct measurements; ref Doerge at al. (2005); cited from earlier work
[5] = Parallelogram approach estimation of AUC-GA in rat
Text: The parallelogram approach representing inter-species comparison of in vivo dose and the use of in vitro data is shown in Fig. 1 for the metabolic transformation of R to RX, which is referred to as the metabolism of AA to GA in the present study. This figure can be formulated to Eq. 1 as described in Methods (cf. Eq. 5), where the superscripts H and R represent the corresponding AUC or EE in human and rat, respectively.1 AUC^H−RX/AUC^R−RX=EE^H−R→RX/EE^H−RXel/EE^R−R→RX/EE^R−RXel×AUC^H−R/AUC^R−R
The in vitro data on enzyme kinetics from human and rat (Table 1), and the in vivo data on AUC of AA and of GA in rat (Table 2) were used to calculate the predictive value of AUC-GA per AUC-AA in human, according to the parallelogram approach (cf. Methods, Eq. 5). This was calculated to 0.087 (Table 3). […] It was observed that the AUC-GA in human and rat predicted by the parallelogram approach and from measured Hb adduct levels, respectively, differed with about a factor of 3 (cf. Tables 2 and 3). This difference is within the variability range of AUC-GA for respective species calculated from different in vivo studies. […]

[6] = set-up: method as in PMID 15668111; settings: 37 °C; cited from earlier work

NC(=O)C1CO1 (racemic) [GA, rac-Glycidamide]
range of AUC-GA [1]: 13–52 nM·h per μg AA per kg bw
daily Hb adduct level increment per exposure dose ([2]; Human, AA-rich food 4 days, 11 μg AA/kg bw, adducts to N-terminal valine): 1.02 pmol/g globin per μg AA/kg bw and day
AUC-GA ([2]; Human, ca. 11 μg AA/kg bw and day through food, 4 days, n = 9, from Hb adducts): 49 nM·h/μg AA per kg bw and 49 ± 17 nM·h/μg AA per kg bw
AUC-GA ([2]; Humans, ca. 2.5 μg AA/kg bw daily through food, 28 days, n = 9, ref Vikström et al. (2011)): 21 nM·h/ μg AA per kg bw
AUC-GA ([2]; Humans, single dose in drinking water 500, 1000 and 3000 µg AA/kg bw, n = 6 males, ref Fennell et al. (2005)): 60 nM·h/ μg AA per kg bw
ratio between species (rat-to-human) of AUC-GA per AUC-AA [3]: 2.3
AUC-GA [4]: 19 nM·h/ μg AA per kg bw
AUC-GA estimated from the parallelogram approach ([5]; Rat, predicted ratio × measured rat AUC-AA): 48 nM·h/μg AA per kg bw
ratio between species (rat-to-human) of AUC-GA per AUC-AA ([5]; from the parallelogram approach): 16
half-life of hydrolysis of GA in an aqueous solution [6]: 43 h
rate of hydrolysis of GA in an aqueous solution [6]: 0.016 h⁻¹
